How the values were obtained:
Assay in all cases: relative viability (nuclei count vs DMSO), 5 days (fraction); higher = more cells survive
Wnt-C59 + Trametinib = compound: CC1=NC=CC(=C1)C2=CC=C(C=C2)CC(=O)NC3=CC=C(C=C3)C4=CN=CC=C4 [Wnt-C59] + CC(=O)Nc1cccc(-n2c(=O)n(C3CC3)c(=O)c3c(Nc4ccc(I)cc4F)n(C)c(=O)c(C)c32)c1 [Trametinib] (partner 0.02 µM)
Outline: (§1)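 Values are medians from duplicate plates. Each reflects relative viability, defined as the nuclei count of treated wells over that of vehicle wells. Lung cancer cell lines in 1536-well plates were pin-tool dosed one day after seeding with one drug alone or with a fixed anchor-drug dose plus five library-drug doses (not always all listed) in √10 steps, then fixed, stained and imaged at 4× after 5 days.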

Wnt-C59 + Alpelisib = compound: CC1=NC=CC(=C1)C2=CC=C(C=C2)CC(=O)NC3=CC=C(C=C3)C4=CN=CC=C4 [Wnt-C59] + Cc1nc(NC(=O)N2CCC[C@H]2C(N)=O)sc1-c1ccnc(C(C)(C)C(F)(F)F)c1 [Alpelisib] (partner 2 µM)
Outline: as §1

Wnt-C59 + Pemetrexed = compound: CC1=NC=CC(=C1)C2=CC=C(C=C2)CC(=O)NC3=CC=C(C=C3)C4=CN=CC=C4 [Wnt-C59] + Nc1nc2[nH]cc(CCc3ccc(C(=O)N[C@@H](CCC(=O)O)C(=O)O)cc3)c2c(=O)[nH]1 [Pemetrexed] (partner 0.2 µM)
Outline: as §1

Wnt-C59 + Decitabine = compound: CC1=NC=CC(=C1)C2=CC=C(C=C2)CC(=O)NC3=CC=C(C=C3)C4=CN=CC=C4 [Wnt-C59] + Nc1ncn([C@H]2C[C@H](O)[C@@H](CO)O2)c(=O)n1 [Decitabine] (partner 2 µM)
Outline: as §1

NCI-H647
relative viability (Wnt-C59 + Trametinib; first compound 0.001 µM): 0.503 | relative viability (Wnt-C59 + Trametinib; first compound 0.01 µM): 0.404 | relative viability (Wnt-C59 + Trametinib; first compound 0.03162 µM): 0.528 | relative viability (Wnt-C59 + Trametinib; first compound 0.1 µM): 0.47 | relative viability (Wnt-C59 + Alpelisib; first compound 0.001 µM): 1.15 | relative viability (Wnt-C59 + Alpelisib; first compound 0.01 µM): 1.11 | relative viability (Wnt-C59 + Alpelisib; first compound 0.03162 µM): 1.23 | relative viability (Wnt-C59 + Alpelisib; first compound 0.1 µM): 1 | relative viability (Wnt-C59 + Pemetrexed; first compound 0.001 µM): 0.162 | relative viability (Wnt-C59 + Pemetrexed; first compound 0.01 µM): 0.158 | relative viability (Wnt-C59 + Pemetrexed; first compound 0.03162 µM): 0.201 | relative viability (Wnt-C59 + Pemetrexed; first compound 0.1 µM): 0.178 | relative viability (Wnt-C59 + Decitabine; first compound 0.001 µM): 0.379 | relative viability (Wnt-C59 + Decitabine; first compound 0.01 µM): 0.456 | relative viability (Wnt-C59 + Decitabine; first compound 0.03162 µM): 0.393 | relative viability (Wnt-C59 + Decitabine; first compound 0.1 µM): 0.288

NCI-H650
relative viability (Wnt-C59 + Trametinib; first compound 0.001 µM): 0.984 | relative viability (Wnt-C59 + Trametinib; first compound 0.01 µM): 0.934 | relative viability (Wnt-C59 + Trametinib; first compound 0.03162 µM): 1.08 | relative viability (Wnt-C59 + Trametinib; first compound 0.1 µM): 1.05 | relative viability (Wnt-C59 + Alpelisib; first compound 0.001 µM): 1.01 | relative viability (Wnt-C59 + Alpelisib; first compound 0.01 µM): 1.24 | relative viability (Wnt-C59 + Alpelisib; first compound 0.03162 µM): 1.23 | relative viability (Wnt-C59 + Alpelisib; first compound 0.1 µM): 1.11 | relative viability (Wnt-C59 + Pemetrexed; first compound 0.001 µM): 1.09 | relative viability (Wnt-C59 + Pemetrexed; first compound 0.01 µM): 0.969 | relative viability (Wnt-C59 + Pemetrexed; first compound 0.03162 µM): 0.934 | relative viability (Wnt-C59 + Pemetrexed; first compound 0.1 µM): 0.951 | relative viability (Wnt-C59 + Decitabine; first compound 0.001 µM): 0.346 | relative viability (Wnt-C59 + Decitabine; first compound 0.01 µM): 0.286 | relative viability (Wnt-C59 + Decitabine; first compound 0.03162 µM): 0.308 | relative viability (Wnt-C59 + Decitabine; first compound 0.1 µM): 0.329

NCI-H661
relative viability (Wnt-C59 + Trametinib; first compound 0.001 µM): 0.567 | relative viability (Wnt-C59 + Trametinib; first compound 0.01 µM): 0.559 | relative viability (Wnt-C59 + Trametinib; first compound 0.03162 µM): 0.593 | relative viability (Wnt-C59 + Trametinib; first compound 0.1 µM): 0.631 | relative viability (Wnt-C59 + Alpelisib; first compound 0.001 µM): 0.621 | relative viability (Wnt-C59 + Alpelisib; first compound 0.01 µM): 0.595 | relative viability (Wnt-C59 + Alpelisib; first compound 0.03162 µM): 0.813 | relative viability (Wnt-C59 + Alpelisib; first compound 0.1 µM): 0.821 | relative viability (Wnt-C59 + Pemetrexed; first compound 0.001 µM): 0.884 | relative viability (Wnt-C59 + Pemetrexed; first compound 0.01 µM): 0.878 | relative viability (Wnt-C59 + Pemetrexed; first compound 0.03162 µM): 0.91 | relative viability (Wnt-C59 + Pemetrexed; first compound 0.1 µM): 0.884 | relative viability (Wnt-C59 + Decitabine; first compound 0.001 µM): 0.542 | relative viability (Wnt-C59 + Decitabine; first compound 0.01 µM): 0.516 | relative viability (Wnt-C59 + Decitabine; first compound 0.03162 µM): 0.576 | relative viability (Wnt-C59 + Decitabine; first compound 0.1 µM): 0.606

NCI-H838
relative viability (Wnt-C59 + Trametinib; first compound 0.001 µM): 0.538 | relative viability (Wnt-C59 + Trametinib; first compound 0.01 µM): 0.55 | relative viability (Wnt-C59 + Trametinib; first compound 0.03162 µM): 0.491 | relative viability (Wnt-C59 + Trametinib; first compound 0.1 µM): 0.482 | relative viability (Wnt-C59 + Alpelisib; first compound 0.001 µM): 1.06 | relative viability (Wnt-C59 + Alpelisib; first compound 0.01 µM): 0.98 | relative viability (Wnt-C59 + Alpelisib; first compound 0.03162 µM): 1.13 | relative viability (Wnt-C59 + Alpelisib; first compound 0.1 µM): 1.02 | relative viability (Wnt-C59 + Pemetrexed; first compound 0.001 µM): 0.235 | relative viability (Wnt-C59 + Pemetrexed; first compound 0.01 µM): 0.24 | relative viability (Wnt-C59 + Pemetrexed; first compound 0.03162 µM): 0.267 | relative viability (Wnt-C59 + Pemetrexed; first compound 0.1 µM): 0.242 | relative viability (Wnt-C59 + Decitabine; first compound 0.001 µM): 0.459 | relative viability (Wnt-C59 + Decitabine; first compound 0.01 µM): 0.509 | relative viability (Wnt-C59 + Decitabine; first compound 0.03162 µM): 0.453 | relative viability (Wnt-C59 + Decitabine; first compound 0.1 µM): 0.402

NCI-H1355
relative viability (Wnt-C59 + Trametinib; first compound 0.001 µM): 0.455 | relative viability (Wnt-C59 + Trametinib; first compound 0.01 µM): 0.404 | relative viability (Wnt-C59 + Trametinib; first compound 0.03162 µM): 0.423 | relative viability (Wnt-C59 + Trametinib; first compound 0.1 µM): 0.373 | relative viability (Wnt-C59 + Alpelisib; first compound 0.001 µM): 1.01 | relative viability (Wnt-C59 + Alpelisib; first compound 0.01 µM): 0.746 | relative viability (Wnt-C59 + Alpelisib; first compound 0.03162 µM): 0.801 | relative viability (Wnt-C59 + Alpelisib; first compound 0.1 µM): 0.733 | relative viability (Wnt-C59 + Pemetrexed; first compound 0.001 µM): 1.04 | relative viability (Wnt-C59 + Pemetrexed; first compound 0.01 µM): 1.03 | relative viability (Wnt-C59 + Pemetrexed; first compound 0.03162 µM): 1.03 | relative viability (Wnt-C59 + Pemetrexed; first compound 0.1 µM): 0.96 | relative viability (Wnt-C59 + Decitabine; first compound 0.001 µM): 0.361 | relative viability (Wnt-C59 + Decitabine; first compound 0.01 µM): 0.354 | relative viability (Wnt-C59 + Decitabine; first compound 0.03162 µM): 0.349 | relative viability (Wnt-C59 + Decitabine; first compound 0.1 µM): 0.337

NCI-H1395
relative viability (Wnt-C59 + Trametinib; first compound 0.001 µM): 0.931 | relative viability (Wnt-C59 + Trametinib; first compound 0.01 µM): 0.995 | relative viability (Wnt-C59 + Trametinib; first compound 0.03162 µM): 1.04 | relative viability (Wnt-C59 + Trametinib; first compound 0.1 µM): 1.02 | relative viability (Wnt-C59 + Alpelisib; first compound 0.001 µM): 0.993 | relative viability (Wnt-C59 + Alpelisib; first compound 0.01 µM): 1.13 | relative viability (Wnt-C59 + Alpelisib; first compound 0.03162 µM): 1.08 | relative viability (Wnt-C59 + Alpelisib; first compound 0.1 µM): 1.07 | relative viability (Wnt-C59 + Pemetrexed; first compound 0.001 µM): 0.968 | relative viability (Wnt-C59 + Pemetrexed; first compound 0.01 µM): 0.861 | relative viability (Wnt-C59 + Pemetrexed; first compound 0.03162 µM): 0.94 | relative viability (Wnt-C59 + Pemetrexed; first compound 0.1 µM): 0.885 | relative viability (Wnt-C59 + Decitabine; first compound 0.001 µM): 0.743 | relative viability (Wnt-C59 + Decitabine; first compound 0.01 µM): 0.76 | relative viability (Wnt-C59 + Decitabine; first compound 0.03162 µM): 0.764 | relative viability (Wnt-C59 + Decitabine; first compound 0.1 µM): 0.704

NCI-H1437
relative viability (Wnt-C59 + Trametinib; first compound 0.001 µM): 0.51 | relative viability (Wnt-C59 + Trametinib; first compound 0.01 µM): 0.562 | relative viability (Wnt-C59 + Trametinib; first compound 0.03162 µM): 0.481 | relative viability (Wnt-C59 + Trametinib; first compound 0.1 µM): 0.579 | relative viability (Wnt-C59 + Alpelisib; first compound 0.001 µM): 1.07 | relative viability (Wnt-C59 + Alpelisib; first compound 0.01 µM): 0.917 | relative viability (Wnt-C59 + Alpelisib; first compound 0.03162 µM): 1.09 | relative viability (Wnt-C59 + Alpelisib; first compound 0.1 µM): 0.946 | relative viability (Wnt-C59 + Pemetrexed; first compound 0.001 µM): 0.36 | relative viability (Wnt-C59 + Pemetrexed; first compound 0.01 µM): 0.299 | relative viability (Wnt-C59 + Pemetrexed; first compound 0.03162 µM): 0.31 | relative viability (Wnt-C59 + Pemetrexed; first compound 0.1 µM): 0.331 | relative viability (Wnt-C59 + Decitabine; first compound 0.001 µM): 0.584 | relative viability (Wnt-C59 + Decitabine; first compound 0.01 µM): 0.562 | relative viability (Wnt-C59 + Decitabine; first compound 0.03162 µM): 0.559 | relative viability (Wnt-C59 + Decitabine; first compound 0.1 µM): 0.614

NCI-H1651
relative viability (Wnt-C59 + Trametinib; first compound 0.001 µM): 0.857 | relative viability (Wnt-C59 + Trametinib; first compound 0.01 µM): 0.875 | relative viability (Wnt-C59 + Trametinib; first compound 0.03162 µM): 0.783 | relative viability (Wnt-C59 + Trametinib; first compound 0.1 µM): 0.773 | relative viability (Wnt-C59 + Alpelisib; first compound 0.001 µM): 1.04 | relative viability (Wnt-C59 + Alpelisib; first compound 0.01 µM): 0.956 | relative viability (Wnt-C59 + Alpelisib; first compound 0.03162 µM): 0.934 | relative viability (Wnt-C59 + Alpelisib; first compound 0.1 µM): 0.815 | relative viability (Wnt-C59 + Pemetrexed; first compound 0.001 µM): 0.577 | relative viability (Wnt-C59 + Pemetrexed; first compound 0.01 µM): 0.618 | relative viability (Wnt-C59 + Pemetrexed; first compound 0.03162 µM): 0.648 | relative viability (Wnt-C59 + Pemetrexed; first compound 0.1 µM): 0.558 | relative viability (Wnt-C59 + Decitabine; first compound 0.001 µM): 0.671 | relative viability (Wnt-C59 + Decitabine; first compound 0.01 µM): 0.675 | relative viability (Wnt-C59 + Decitabine; first compound 0.03162 µM): 0.613 | relative viability (Wnt-C59 + Decitabine; first compound 0.1 µM): 0.597

Source: the supplement of paper PMC10307832
